Test results published in patent US20100210584A1, “LIQUID OR PASTE COMPOSITIONS INTENDED TO PROVIDE ELEMENTS ESSENTIAL FOR THE SYNTHESIS AND FORMATION OF PROTEOGLYCANS, IN PARTICULAR, FOR THE TREATMENT OF CARTILAGE DEGRADATION” (priority 2007, published 2010).
Where two headings read alike, the source gives them in different places.

Key:
[1] = placebo-controlled; cited from earlier work
[2] = cited from earlier work
[3] = cited from earlier work; remark: listed apart in the source
[4] = beyond a pH of 7.0; cited from earlier work
[5] = taken orally; cited from earlier work
[6] = humans, dependent on the molecular weight; cited from earlier work
[7] = 800 to 1200 mg/day; cited from earlier work
[8] = Coloring (Maillard reaction) of aqueous solutions on storage; format: physicochemical; details: 6.0% in water by total weight of the composition
Protocol: At the chemical level, glucosamine, which can be of either natural or synthetic origin, is a glucose molecule to which an amino grouping has bonded. Consequently, in water without the addition of sugar, this molecule automatically leads to the appearance of a brown color of the solution by the condensation reaction of the different glucosamine molecules together. This appears clearly in an aqueous 7.5% glucosamine solution. After 8 months at 40° C., the solution takes on a caramel hue.
Three solutions have been produced, each containing 7.5% glucosamine by weight with respect to the total weight of the composition and 6.0% chondroitin sulfate by weight with respect to the total weight of the composition. In two solutions, anhydrous citric acid was added before the introduction of chondroitin sulfate. One of the solutions was heated at 100° C. for 10 minutes.

[9] = animals, labeled chondroitin; cited from earlier work
[10] = test system: arthritic knee joint; details: three to five injections at one-week intervals, on average; cited from earlier work

Compound: CC(=O)Oc1cccc2c1C(=O)c1c(OC(C)=O)cc(C(=O)O)cc1C2=O [Diacerein]
- articular joint space [1]: significant decrease in the articular joint space

Compound: N[C@H]1C(O)O[C@H](CO)[C@@H](O)[C@@H]1O (stereo partly shown) [glucosamine]
- solubility in water and in an alcohol medium [2]: highly soluble
- efficacy on joint pain and swelling compared with ibuprofen ([3]; beginning in the second week of treatment): more effective than ibuprofen
- articular joint space ([3]; in vivo): preserves the articular joint space
- degradation [4]: degrades rapidly
- absorption [5]: ~90%
- time until maximum concentration is reached [5]: 8 h

Compound: chondroitin sulfate
- solubility in alcohols ([2]; ethanol, propanol-1 and isopropanol): insoluble
- absorption [6]: around 15%
- Lequesne index [7]: improves the Lequesne index
- articular joint space [7]: preserves the articular joint space
- mobility [7]: improves mobility
- pain [7]: reduces pain
- intensity of coloring compared with a pure 7.5% glucosamine solution [8]: ten times less intense
- absorption [9]: more than 66%

Compound: hyaluronic acid
- duration of efficacy [10]: 8-9 months
